Tests used:
[1] = tested on: membrane testosterone receptors in LNCaP cells; experiment: Displacement binding of [3H]testosterone on LNCaP cell membranes; design: species or system human; details: 5 nM [3H]testosterone, competitor 10^-12-10^-6 M
Procedure: (§1) Cells, cultured in 150 cm^2 flasks without serum, were washed twice with phosphate-buffered saline (PBS), removed by scraping and centrifuged at 1500 rpm. Pelleted cells were homogenized by sonication in 50 mM Tris-HCl buffer pH 7.4 containing freshly added protease inhibitors (10 μg/ml PMSF and 1 μg/ml aprotinin). Unbroken cells were removed by centrifugation at 2500 g for 15 min. Membranes were obtained by centrifugation at 45,000 g for 1 hour, and washed once by the same buffer. Protein concentration was measured by the method of Bradford.
(§2) Saturation binding experiments were performed in a final volume of 0.1 ml, containing cell membranes at a final protein concentration of 2 mg/ml and at least 6 different concentrations of [^3H]testosterone (ranging 2-50 nM) without (total binding) or with (non-specific binding) a 100-fold molar excess of unlabelled androgen (DHT). […] In both types of binding experiments, after an overnight incubation at 4° C., bound radioactivity was separated by filtration under reduced pressure through GF/B filters previously soaked in 0.5% polyethylenimine (PEI) in water and rinsed three times with ice-cold Tris-HCl buffer. Filters were mixed with 4 ml scintillation cocktail and the bound radioactivity was counted in a scintillation counter (Tricarb, Series 4000, Packard) with 60% efficiency for Tritium. […]

[2] = tested on: membrane testosterone receptors in LNCaP cells; experiment: Saturation binding of [3H]testosterone to LNCaP cell membranes; design: species or system human; details: [3H]testosterone 2-50 nM, LNCaP membranes 2 mg/ml, overnight 4° C., non-specific binding with excess DHT; read-out: KD (Scatchard analysis)
Procedure: as §1, §2

[3] = tested on: FAK→PI-3 kinase→Cdc42/Rac1→actin reorganization in LNCaP cells; experiment: Signalling FAK, PI-3 kinase, Cdc42/Rac1, actin reorganization (immunoprecipitation, kinase assays, affinity precipitation); type: cell-based, human
Procedure: Testosterone-BSA or DHT-treated, as well as untreated (control) cells were washed three times with ice-cold PBS and suspended in cold lysis buffer containing 1% Nonidet P-40, 20 mM Tris pH 7.4 and 137 mM NaCl, supplemented with protease and phosphatase inhibitors. Cleared lysates were preadsorbed with protein A-Sepharose for 1 h at 4° C., centrifuged and the supernatants (equal amounts of protein) were subjected to immunoprecipitation using the indicated antibodies and the protein A-Sepharose beads.
The lipid kinase activity of PI-3 kinase was measured by the method of Auger et al with minor modifications. Protein A-Sepharose beads containing immunoprecipitated phosphotyrosine proteins were washed three times with Buffer A (20 mM Tris pH 7.4, 137 mM NaCl, 1 mM CaCl2, 1 mM MgCl2, 1% Nonidet P-40, 0.1 mM Na3VO4), three times with 5 mM LiCl in 0.1 M Tris (pH 7.4) and twice with TNE (10 mM Tris pH 7.4, 150 mM NaCl, 5 mM EDTA, 0.1 mM Na3VO4). […]
For immunoblot analysis, the cell lysates or the immunoprecipitates were suspended in Laemmli's sample buffer and separated by SDS-PAGE. […] Blots were developed using the ECL system and the band intensities were quantified by PC-based image analysis (Image Analysis Inc., Ontario, Canada). […]

LNCaP cells = experiment: Confocal laser microscopy of membrane binding on LNCaP cells; type: cell-based, human; details: 30 min incubation
Procedure: LNCaP cells were allowed to grow on poly-L-lysine coated glass coverslips for at least 48 hours before culture medium was replaced with serum free medium. After a 24-hour period, cells were washed twice with PBS and incubated with Testosterone-BSA-FITC for 30 min in the presence or in the absence of DHT. As a negative control BSA-FITC was used. Cells were then washed twice with PBS and fixed with 2% PFA in PBS for 30 min. Coverslips were mounted on to slides using a 1:1 (v/v) mixture of glycerol and Vestashield (Vector, Burlingame, Calif.). Specimens were analysed using a confocal laser scanning microscope (CLSM) (Leica TCS-NT, Lasertechnik, Heidelberg, Germany).
(§3) The presence of membrane testosterone receptors was equally identified using the testosterone analog testosterone3-(O-carboxymethyl)oxime-BSA-FITC, obtained from Sigma (St Louis, Mo.). This analog is not capable to penetrate the cells, because of a covalent attachment of the steroid with BSA. […] The membrane binding was equally verified by confocal laser microscopy, as shown in the right panel of FIG. 2.

[4] = tested on: prostate cancer LNCaP cells; experiment: Cell number by tetrazolium salt assay; type: cell-based, human; details: 24 hours
Procedure: The human prostate cancer LNCaP cell line, originally isolated from a lymph node metastasis of prostate adenocarcinoma, was purchased from DSMZ (Braunschweig, Germany). Cells were cultured in RPMI 1640 medium supplemented with 10% heat inactivated fetal bovine serum (FBS) at 37° C. in a humidified atmosphere of 5% CO2 in air. They were subcultured once a week and incubated in serum-free medium for 24 h before any experiment. All culture media were purchased from Gibco BRL (Life Technologies, Paisley, UK).
Cell number was assayed using the tetrazolium salt assay. Cells were incubated for 3 h at 37° C. with the tetrazolium salt (3-(4,5 dimethylthiazol-2-yl)-2,5 diphenyl tetrazolium bromide, Sigma, St Louis, Mo.). Living cells reduced the dye to purple formazan seen as dark blue crystals. At the end of the incubation period they were dissolved with propanol-1 and the absorbance was measure at 575 nm, within one hour.
In view of the above results, we incubated prostate cancer LNCaP cells with testosterone-BSA alone (10^−7 M) or together with Taxol® (10^−8 M) for 24 hours. […] In addition, a potentiation of the action of Taxol® by ˜7% was also found. […]

[5] = tested on: LNCaP tumors in nude mice; experiment: In vivo effect in nude mice bearing implanted LNCaP tumors; details: four weeks
Procedure: FIG. 9 presents the effect of testosterone-BSA administration in nude mice, bearing implanted tumors. Arrows show the injection times of testosterone-BSA (500 μl of a 5×10^−6 M solution) with or without addition of 10 mg/kg Taxol®.
Nude mice were injected in the back with 5×10^6 LNCaP cells diluted in Matrigel® (Sigma, St Louis, Mo.) in a total volume of 0.1 ml. After 4 weeks, macroscopical tumors were developed, and treatment was initiated, as follows: Drugs, diluted in PBS were injected intraperitoneally 3 times per week, in a total volume of 0.5 ml. Animals were divided in four groups: The first group received 5×10^−6 M BSA. The second group was injected with 5×10^−6 M testosterone-BSA conjugate. The third group was injected with 10 mg/ml Taxol®, while in the fourth group a combination of testosterone-BSA and Taxol® was introduced. Tumors were measured after four weeks of treatment. Tumors were excised, measured, weighted and send to a pathologist for further analysis.
As presented in FIG. 9, testosterone-BSA induced a time-dependent decrease in tumor mass by 53%. Addition of Taxol® produces a dramatic decrease of tumor weight by 77%. […] Therefore it is possible that the decrease if tumor mass could be greater for longer periods of treatment In addition, apoptosis was observed histologically in all tumors studied.

[6] = tested on: membrane testosterone receptors in LNCaP cells; experiment: Flow cytometry detection of membrane binding on LNCaP cells; design: species or system human; details: 10^-7 M
Procedure: LNCaP cells, cultured in serum free medium for 24 hrs, were detached from the culture flask by scraping and suspended in PBS at a density of 10^6 cells/ml. They were incubated at room temperature with 10^−7 M testosterone-BSA-FITC conjugate for different periods of time (1 min to 1 hour). A thousand-fold BSA-FITC was used to determine non-specific binding. Cells were analysed by flow cytometry using a Coulter Epics L-MCL apparatus (Beckman-Coulter Inc. Foullerton Calif., USA) in a sample size of 10,000 cells gated on the basis of forward and side scatter. Testosterone3-(O-carboxymethyl)oxime-BSA-FITC (named testosterone-BSA-FITC), testosterone3-(O-carboxymethyl)oxime-BSA (named testosterone-BSA), estradiol6-(O-carboxymethyl)oxime-BSA-FITC (named estradiol-BSA-FITC), progesterone3-(O-carboxymethyl)oxime-BSA-FITC (named progesterone-BSA-FITC) and BSA-FITC were obtained from Sigma (St Louis, Mo.).
as §3

[7] = tested on: actin cytoskeleton of LNCaP human prostate cancer cells; experiment: Determination of monomeric and polymerized actin; type: cell-based; details: 10^-7 M, 10 min
Procedure: For measurements of the monomeric (Triton soluble) and polymerized (Triton insoluble) actin, LNCaP cells were incubated for 10 min with or without DHT or testosterone-BSA (10^−7 M). Then, 500 μl of Triton-extraction buffer (0.3% TritonX-100, 5 mM Tris, pH 7.4, 2 mM EGTA, 300 mM sucrose, 2 μM phalloidin, 1 mM PMSF, 10 μg/ml leupeptin, 20 μg/ml aprotinin, 1 mM sodium orthovanadate, and 50 mM NaF) were added, and the mixture was incubated for 5 minutes on ice. After removing the buffer, soluble proteins were precipitated with equal volumes of 6% PCA. The Triton-insoluble fraction remaining on the plate was precipitated with 1 ml of 3% PCA. Equal volumes of each fraction were subjected to SDS-polyacrylamide gel electrophoresis (SDS-PAGE). The resulting protein-bands were transferred onto nitrocellulose membrane, and the membrane was blocked with 5% nonfat dry milk in TBS-T (20 mM Tris pH 7.6, 137 mM NaCl, 0.05% Tween-20) for 1 h at room temperature. Antibody solutions (in TBS-T) were added for 1 h at room temperature [monoclonal mouse anti-actin first antibody (Amersham-Pharmacia, Bukinghamshire, UK) and second horseradish peroxidase-coupled antibody (Chemicon, Temecula, Calif.)]. Blots were developed using the ECL system (Amersham-Pharmacia, Bukinghamshire, UK) and the band intensities were quantified by PC-based image analysis (Image Analysis Inc., Ontario, Canada). […]

## CC(=O)[C@H]1CC[C@H]2[C@@H]3CCC4=CC(=O)CC[C@]4(C)[C@H]3CC[C@]12C [progesterone]
[1]; compared with DHT
  lower affinity in displacing radiolabelled testosterone (fold): 10^2 fold

## C[C@]12CC[C@H]3[C@@H](CCC4=CC(=O)CC[C@@]43C)[C@@H]1CC[C@@H]2O [testosterone]
[2]
  Kd: 10.9 nM
[3]
  activation of signalling cascade FAK→PI-3 kinase→Cdc42/Rac1→actin reorganization: less active than testosterone-BSA conjugate

## C[C@]12CCC(=O)C[C@@H]1CC[C@@H]1[C@@H]2CC[C@]2(C)[C@@H](O)CC[C@@H]12 [DHT]
[1]
  displacement of radiolabeled testosterone: produced a displacement of radiolabeled testosterone

## testosterone3-(O-carboxymethyl)oxime-BSA [testosterone-BSA]
LNCaP cells
  localisation of staining (internalization): only membrane staining was found
[4]; testosterone-BSA 10^-7 M together with Taxol® 10^-8 M
  potentiation of the action of Taxol®: ~7%
[4]; testosterone-BSA alone 10^-7 M
  decrease of cells: 50%
[5]; nude mice with LNCaP tumors, testosterone-BSA 5×10^-6 M i.p. 3 times per week
  decrease in tumor mass: 53%
[5]; nude mice with LNCaP tumors, testosterone-BSA 5×10^-6 M with addition of Taxol®, i.p. 3 times per week
  decrease of tumor weight: 77%
[5]; nude mice, 0.5 ml of 5×10^-6 M intraperitoneally 3 times per week
  tolerance of treatment: supported very well
[6]; flow cytometry
  time at which association with membrane receptors was observed: 1 min
[6]; flow cytometry, unchanged after 30 min
  time at which association with membrane receptors was maximal: 10 min
[6]; room temperature
  membrane binding by flow cytometry: specific membrane binding
[7]
  ratio of soluble (monomeric) to insoluble (polymerised) actin: significant decrease
